Type in all cases: in vivo
One assay has as its system weedy Glycine max. Put plainly: Greenhouse post-emergence herbicidal efficacy on weedy Glycine max. The method, then:
(§1) Evaluation of Post-Emergence Herbicidal Activity of Combinations Under Field Conditions
(§2) Methodology: Greenhouse trials were carried out to evaluate the efficacy of the combination of L-glufosinate and the other herbicides on weeds such as Glycine max, Spermacoce verticilata, Eleusine indica, Brachiaria decumbens. The soil used was sandy clay loam—Sand: 68.0%; Silt: 8.0%; Clay: 24.0%. All treatments were conducted in 4 replications per treatment with a spray volume of […].
(§3) The expected efficacy of a combination of L-glufosinate and the other herbicides was calculated using the well-established Colby method. Any difference between the observed and “expected” efficacy could be attributed to synergy between the two compounds.
(§4) In the Colby method, the expected (or predicted) response of a combination of herbicides is calculated by taking the product of the observed response for each individual component of the combination when applied alone, divided by 100, and subtracting this value from the sum of the observed response for each component when applied alone. An unexpected enhancement in efficacy of the combination is then determined by comparing the observed response of the combination to the expected (or predicted) response as calculated from the observed response of each individual component alone. If the observed response of the combination is greater than the expected (or predicted) response, or stated conversely, if the difference between the observed and expected response is greater than zero, then the combination is said to be synergistic or unexpectedly effective (Colby, S. R., Weeds, 1967(15), p. 20-22). The Colby method requires only a single dose of each herbicide applied alone and the mixture of both doses. The formula used to calculate the expected efficacy (EE) which was compared with the observed efficacy (OE) to determine the efficacy of the present invention is explained hereinbelow:
(§5) The expected efficacy for a combination of two active ingredients is as follows:
(§6) The expected efficacy for a combination of three active ingredients is as follows:
(§7) Where, • A=Observed efficacy of active ingredient A at the same concentration as used in the mixture. • B=Observed efficacy of the active ingredient B at the same concentration as used in the mixture. • C=Observed efficacy of the active ingredient C at the same concentration as used in the mixture.

The next assay has as its system Eleusine indica. Put plainly: Greenhouse post-emergence herbicidal efficacy on Eleusine indica. On the procedure: as §1, §2, §3, §4, §5, §6, §7
Another assay concerns Brachiaria decumbens. Put plainly: Greenhouse post-emergence herbicidal efficacy on Brachiaria decumbens. The method, then:
as §1, §2, §3, §4, §5, §6, §7

In another assay the test system is Spermacoce latifolia. Put plainly: Greenhouse post-emergence herbicidal efficacy on Spermacoce latifolia. Particulars: L-glufosinate 150, imazethapyr 75, carfentrazone 7.5 g a.i./h. The method, then:
as §1, §2, §3, §4, §5, §6, §7

In another assay the test system is Borreria verticillata. Put plainly: Greenhouse post-emergence herbicidal efficacy on Borreria verticillata. Particulars: L-glufosinate 150, imazapic and imazapyr 31.5 + 10.5 g a.i./h. The method, then: as §1, §2, §3, §4, §5, §6, §7
The next assay deals with Amaranthus viridus. Put plainly: Greenhouse post-emergence herbicidal efficacy on Amaranthus viridus. The note with it: Table 11, 3 DAA, L-glufosinate 150, imazapic and imazapyr 31.5 + 10.5 g a.i./h. The method, then: as §1, §2, §3
In the Colby method, the expected (or predicted) response of a combination of herbicides is calculated by taking the product of the observed response for each individual component of the combination when applied alone, divided by 100, and subtracting this value from the sum of the observed response for each component when applied alone. An unexpected enhancement in efficacy of the combination is then determined by comparing the observed response of the combination to the expected (or predicted) response as calculated from the observed response of each individual component alone. […]

The mark [1] stands for this setting: Table 9, 21 DAA, L-glufosinate 150, saflufenacil 30, 2,4 D 228 g a.i./h.
[2] abbreviates: Table 9, 28 DAA, L-glufosinate 150, saflufenacil 30, 2,4 D 228 g a.i./h.
Where [3] appears, read: Table 9, 35 DAA, L-glufosinate 150, saflufenacil 30, 2,4 D 228 g a.i./h.
The mark [4] stands for this setting: Table 4, 3 DAA, L-glufosinate 150, imazethapyr 75, carfentrazone 7.5 g a.i./h.
Setting [5] is: Table 4, 7 DAA, L-glufosinate 150, imazethapyr 75, carfentrazone 7.5 g a.i./h.
Where [6] appears, read: Table 4, 14 DAA, L-glufosinate 150, imazethapyr 75, carfentrazone 7.5 g a.i./h.
The mark [7] stands for this setting: Table 4, 21 DAA, L-glufosinate 150, imazethapyr 75, carfentrazone 7.5 g a.i./h.
Where [8] appears, read: Table 4, 28 DAA, L-glufosinate 150, imazethapyr 75, carfentrazone 7.5 g a.i./h.
The mark [9] stands for this setting: Table 4, 35 DAA, L-glufosinate 150, imazethapyr 75, carfentrazone 7.5 g a.i./h.
The mark [10] stands for this setting: Table 6, 7 DAA, L-glufosinate 150, imazethapyr 75, carfentrazone 7.5 g a.i./h.
The mark [11] stands for this setting: Table 6, 14 DAA, L-glufosinate 150, imazethapyr 75, carfentrazone 7.5 g a.i./h.
[12] abbreviates: Table 6, 21 DAA, L-glufosinate 150, imazethapyr 75, carfentrazone 7.5 g a.i./h.
The mark [13] stands for this setting: Table 6, 28 DAA, L-glufosinate 150, imazethapyr 75, carfentrazone 7.5 g a.i./h.
Setting [14] is: Table 6, 35 DAA, L-glufosinate 150, imazethapyr 75, carfentrazone 7.5 g a.i./h.
Setting [15] is: Table 3, 14 DAA, L-glufosinate 150, imazethapyr 75, carfentrazone 7.5 g a.i./h.
Where [16] appears, read: Table 3, 21 DAA, L-glufosinate 150, imazethapyr 75, carfentrazone 7.5 g a.i./h.
Where [17] appears, read: Table 3, 28 DAA, L-glufosinate 150, imazethapyr 75, carfentrazone 7.5 g a.i./h.
The mark [18] stands for this setting: Table 3, 35 DAA, L-glufosinate 150, imazethapyr 75, carfentrazone 7.5 g a.i./h.
The mark [19] stands for this setting: Table 8, 7 DAA (head; title says 3 days), L-glufosinate 150, saflufenacil 30, triclopyr 228 g a.i./h.
Where [20] appears, read: Table 7, 7 DAA, L-glufosinate 150, saflufenacil 30, triclopyr 228 g a.i./h.

For the compound `O=C(O)COc1ccc(Cl)cc1Cl` [2,4 D, 2,4-D], the results for the Control % with weedy Glycine max (setting [1]), in the assay on weedy Glycine max (setting [2]) and with weedy Glycine max (setting [3]) were 49.3%, 43.8% and 41%, respectively.

For the compound `Cc1nn(-c2cc(CC(Cl)C(=O)O)c(Cl)cc2F)c(=O)n1C(F)F` (stereo not shown) [Carfentrazone, carfentrazone], the Control % in the assay with Eleusine indica (setting [4]) came out at 8.7%; in the assay with Eleusine indica (setting [5]) it was 14%; in the assay on Eleusine indica (setting [6]), 12.3%; with Eleusine indica (setting [7]) it was 11%; in the assay with Eleusine indica (setting [8]), 7.7%; with Eleusine indica (setting [9]) it was 0%. Also, the Control % in the assay with Brachiaria decumbens (setting [10]) is recorded as 14%; in the assay with Brachiaria decumbens (setting [11]), 16.7%; in the assay with Brachiaria decumbens (setting [12]), 15%; with Brachiaria decumbens (setting [13]), 5%; with Brachiaria decumbens (setting [14]), 0%; in the assay on weedy Glycine max (setting [15]), 50.3%. Moreover, the Control % in the assay on weedy Glycine max (setting [16]) amounted to 44.3%; in the assay with weedy Glycine max (setting [17]) it was 44.3%; in the assay with weedy Glycine max (setting [18]) it was 39.3%; with Spermacoce latifolia (Table 5, 7 DAA), 58.3%; with Spermacoce latifolia (Table 5, 14 DAA), 64.3%; in the assay with Spermacoce latifolia (Table 5, 21 DAA) it was 64.3%. Also, the Control % came out at 64.3% in the assay with Spermacoce latifolia (Table 5, 28 DAA) and 63.3% in the assay on Spermacoce latifolia (Table 5, 35 DAA).

On to `CCc1cnc(C2=NC(C)(C(C)C)C(=O)N2)c(C(=O)O)c1` (stereo not shown) [Imazethapyr, imazethapyr], for which the Control % was determined as 3.7% in the assay with Eleusine indica (setting [4]); 8.3% in the assay on Eleusine indica (setting [5]); 12% in the assay on Eleusine indica (setting [6]); 12.7% in the assay on Eleusine indica (setting [7]); 12.7% with Eleusine indica (setting [8]); 10% with Eleusine indica (setting [9]). Moreover, the Control % in the assay with Brachiaria decumbens (setting [10]) stood at 10%; in the assay with Brachiaria decumbens (setting [11]) it was 10%; in the assay with Brachiaria decumbens (setting [12]), 15%; with Brachiaria decumbens (setting [13]), 10%; in the assay with Brachiaria decumbens (setting [14]), 5%; in the assay on weedy Glycine max (setting [15]) it was 10%. For the same compound, the Control % amounted to 20.0% in the assay with weedy Glycine max (setting [16]); 20.0% in the assay on weedy Glycine max (setting [17]); 15.0% with weedy Glycine max (setting [18]); 13.3% with Spermacoce latifolia (Table 5, 7 DAA); 30% in the assay on Spermacoce latifolia (Table 5, 14 DAA); 36.7% in the assay on Spermacoce latifolia (Table 5, 21 DAA). For the same compound, the Control % in the assay on Spermacoce latifolia (Table 5, 28 DAA) is 30%; in the assay on Spermacoce latifolia (Table 5, 35 DAA) it was 26.7%.

For `CP(=O)(O)CC[C@H](N)C(=O)O` [L-glufosinate, (S)-2-amino-4-(hydroxy(methyl)phosphonyl)butanoic acid], the Control % came to 50% with Borreria verticillata (Table 10, 3 DAA); 80% in the assay on Borreria verticillata (Table 10, 7 DAA); 95% with Borreria verticillata (Table 10, 14 DAA); 90% with Borreria verticillata (Table 10, 21 DAA); 90% in the assay on Borreria verticillata (Table 10, 28 DAA); 85% in the assay with Borreria verticillata (Table 10, 35 DAA). Moreover, the Control % with Eleusine indica (setting [4]) amounted to 15%; in the assay on Eleusine indica (setting [5]), 43.3%; in the assay with Eleusine indica (setting [6]), 41.3%; in the assay on Eleusine indica (setting [7]), 37.3%; in the assay with Eleusine indica (setting [8]), 28.3%; in the assay with Eleusine indica (setting [9]), 25.3%. Also, the Control % with Eleusine indica (Table 12, 3 DAA, L-glufosinate 150, imazapic and imazapyr 31.5 + 10.5 g a.i./h) was found to be 40%; in the assay with Eleusine indica (Table 12, 7 DAA, L-glufosinate 150, imazapic and imazapyr 31.5 + 10.5 g a.i./h) it was 50%; in the assay with Eleusine indica (Table 12, 14 DAA, L-glufosinate 150, imazapic and imazapyr 31.5 + 10.5 g a.i./h), 40%; in the assay with Brachiaria decumbens (setting [10]), 46%; in the assay with Brachiaria decumbens (setting [11]) it was 54.3%; in the assay with Brachiaria decumbens (setting [12]) it was 53.3%. Also, the Control % in the assay with Brachiaria decumbens (setting [13]) is 48.3%; in the assay on Brachiaria decumbens (setting [14]), 42%; with Brachiaria decumbens (setting [19]), 66.2%; in the assay with weedy Glycine max (setting [15]) it was 60%; in the assay with weedy Glycine max (setting [16]) it was 63.3%; in the assay with weedy Glycine max (setting [17]) it was 63.3%. In addition, the Control % with weedy Glycine max (setting [18]) is given as 52.7%; in the assay on weedy Glycine max (setting [20]) it was 71.9%; in the assay with weedy Glycine max (setting [1]) it was 57.5%; with weedy Glycine max (setting [2]), 50.6%; with weedy Glycine max (setting [3]) it was 47.5%; with Spermacoce latifolia (Table 5, 7 DAA) it was 35%. Also, the Control % in the assay with Spermacoce latifolia (Table 5, 14 DAA) was determined as 56.7%; in the assay on Spermacoce latifolia (Table 5, 21 DAA), 56.7%; in the assay with Spermacoce latifolia (Table 5, 28 DAA), 58.3%; in the assay with Spermacoce latifolia (Table 5, 35 DAA), 58.3%; in the assay with Amaranthus viridus it was 50%.

`CC(C)N(C)S(=O)(=O)NC(=O)c1cc(-n2c(=O)cc(C(F)(F)F)n(C)c2=O)c(F)cc1Cl` [Saflufenacil, saflufenacil]: the Control % is recorded as 30% in the assay with Brachiaria decumbens (setting [19]); 75.4% in the assay with weedy Glycine max (setting [20]); 63.2% in the assay on weedy Glycine max (setting [1]); 52.5% in the assay with weedy Glycine max (setting [2]); 50.7% in the assay on weedy Glycine max (setting [3]).

With `O=C(O)COc1nc(Cl)c(Cl)cc1Cl` [Triclopyr, triclopyr], the Control % turned out to be 0% with Brachiaria decumbens (setting [19]) and 67.9% in the assay on weedy Glycine max (setting [20]).

Values taken from patent US20250113826A1, “AN AGROCHEMICAL COMBINATION” (UPL LIMITED, priority 2021, published 2025).
